Measurements published in EP0313908A2, “Halogen-substituted phenoxyphenylpropionic acid derivatives” (BAYER AG, priority 1987, dated 1989).

How the values were obtained:
[1] = system: Unkräuter, wie z. B. Amaranthus, Chenopodium, Ipomoea, Portulak und Solanum; test: Post-emergence test (herbicidal action on weeds); type: in vivo; details: post-emergence spray on test plants 5 - 15 cm high, 2000 l Wasser/ha; damage rated after three weeks against untreated control; stated in comparison with Vergleichssubstanz (A)
Excerpt: (§1) Post-emergence-Test Lösungsmittel: 5 Gewichtsteile Aceton Emulgator: 1 Gewichtsteil Alkylarylpolyglykolether
(§2) Zur Herstellung einer zweckmäßigen Wirkstoffzubereitung vermischt man 1 Gewichtsteil Wirkstoff mit der angegebenen Menge Lösungsmittel, gibt die angegebene Menge Emulgator zu und verdünnt das Konzentrat mit Wasser auf die gewünschte Konzentration.
(§3) Mit der Wirkstoffzubereitung spritzt man Testpflanzen, welch eine Höhe von 5 - 15 cm haben so, daß die jeweils gewünschten Wirkstoffmengen pro Flächeneinheit ausgebracht werden. Die Konzentration der Spritzbrühe wird so gewählt, daß in 2000 l Wasser/ha die jeweils gewünschten Wirkstoffmengen ausgebracht werden. Nach drei Wochen wird der Schädigungsgrad der Pflanzen bonitiert in % Schädigung im Vergleich zur Entwicklung der unbehandelten Kontrolle. Es bedeuten: 0 % = keine Wirkung (wie unbehandelte Kontrolle) 100 % = totale Vernichtung

Mais = details: in vivo
Excerpt: as §1, §2, §3

Baumwollpflanzen = test: Defoliation and desiccation of the leaves of cotton; type: in vivo, Baumwolle; details: cotton plants in the greenhouse, 5th leaf fully unfolded, sprayed dripping wet; rated after 1 week against control plants (scale 0, +, ++, +++)
Excerpt: Entlaubung und Austrocknung der Blätter bei Baumwolle
Lösungsmittel: 30 Gewichtsteile Dimethylformamid Emulgator: 1 Gewichtsteil Polyoxyethylen-Sorbitan-Monolaurat
Zur Herstellung einer zweckmäßigen Wirkstoffzubereitung vermischt man 1 Gewichtsteil Wirkstoff mit den angegebenen Mengen Lösungsmittel und Emulgator und füllt mit Wasser auf die gewünschte Konzentration auf.
Baumwollpflanzen werden im Gewächshaus bis zur vollen Entfaltung des 5. Folgeblattes angezogen. In diesem Stadium werden die Pflanzen tropfnaß mit den Wirkstoffzubereitungen besprüht. Nach 1 Woche werden der Blattfall und das Austrocknen der Blätter im Vergleich zu den Kontrollpflanzen bonitiert. Es bedeuten: 0 kein Austrocknen der Blätter, kein Blattfall + leichtes Austrocknen der Blätter, geringer Blattfall ++ starkes Austrocknen der Blätter, starker Blattfall +++ sehr starkes Austrocknen der Blätter, sehr starker Blattfall

With COC(=O)CCc1cc(Oc2c(Cl)cc(C(F)(F)F)cc2Cl)ccc1Cl [Beispiel 3, 3-[3-(2,6-dichlor-4-trifluormethyl-phenoxy)-6-chlor-phenyl]-propionsäuremethylester] the “Wirkung gegen Unkräuter” value [1] was “erheblich stärkere Wirkung”, the “Selektivität in Mais” value (Mais) was “guter Selektivität” and the “Austrocknen der Blätter” value (Baumwollpflanzen) was “sehr starkes”. The Blattfall (Baumwollpflanzen) was “sehr starken”.

For COC(=O)C(Cl)Cc1cc(Oc2c(Cl)cc(C(F)(F)F)cc2Cl)ccc1Cl (stereo not drawn) [Beispiel 1, 2-Chlor-3-[3-(2,6-dichlor-4-trifluormethyl-phenoxy)-6-chlor-phenyl]-propionsäure-methylester], the “Wirkung gegen Unkräuter” value [1] was “erheblich stärkere Wirkung”, the “Selektivität in Mais” value (Mais) was “guter Selektivität” and the “Austrocknen der Blätter” value (Baumwollpflanzen) was “sehr starkes”. For the same compound, the Blattfall (Baumwollpflanzen) was “sehr starken”.

With COC(=O)CC(Br)c1cc(Oc2c(Cl)cc(C(F)(F)F)cc2Cl)ccc1Cl (stereo not drawn) [Beispiel 4, 3-Brom-3-[3-(2,6-dichlor-4-trifluormethyl-phenoxy)-6-chlorphenyl]-propionsäuremethylester] the “Wirkung gegen Unkräuter” value [1] was “erheblich stärkere Wirkung” and the “Selektivität in Mais” value (Mais) was “guter Selektivität”.

COC(=O)C(Br)Cc1cc(Oc2c(Cl)cc(C(F)(F)F)cc2Cl)c(Cl)cc1Cl (stereo not drawn) [Beispiel 2, 2-Brom-3-[3-(2,6-dichlor-4-trifluormethyl-phenoxy)-4,6-dichlorphenyl]-propionsäuremethylester] was tested, and the “Wirkung gegen Unkräuter” value [1] was “erheblich stärkere Wirkung” and the “Selektivität in Mais” value (Mais) was “guter Selektivität”.
